The experiment deals with M. tuberculosis. In words: Extracellular activity against M. tuberculosis in cholesterol media (Alamar Blue reduction assay). The following applies: Mycobacterium tuberculosis, 240 h, 7H12-Cholesterol media, 10 days; read-out: Cholesterol broth: alamar blue--EC50. The class given is cell-based, Mycobacterium tuberculosis.

The structures appear in SMILES notation. Some results are limits rather than exact numbers.

As a reminder, the EC50 is the concentration at which the effect is half-maximal.

Consider `Cn1ncnc1CC(=O)N1C[C@H]2C[C@@H](C1)[C@H]2c1nc(-c2ccc(Cl)cc2)no1` [Compound 219, 1-((1R,5S,6s)-6-(3-(4-chlorophenyl)-1,2,4-oxadiazol-5-yl)-3-azabicyclo[3.1.1]heptan-3-yl)-2-(1-methyl-1H-1,2,4-triazol-5-yl)ethan-1-one], for which the EC50 is above 10 µM.

Regarding `Cn1ncnc1CC(=O)N1C[C@H]2C[C@@H](C1)[C@@H]2c1nc(-c2ccc(Cl)cc2)no1` [Compound 220, 1-((1R,5S,6r)-6-(3-(4-chlorophenyl)-1,2,4-oxadiazol-5-yl)-3-azabicyclo[3.1.1]heptan-3-yl)-2-(1-methyl-1H-1,2,4-triazol-5-yl)ethan-1-one], the EC50 came out at 0.14 µM. Regarding `Cn1ncnc1CC(=O)N1C[C@H]2C[C@@H](C1)[C@@H]2c1nc(-c2ccc(Cl)c(F)c2)no1` [Compound 221, 1-((1R,5S,6r)-6-(3-(4-chloro-3-fluorophenyl)-1,2,4-oxadiazol-5-yl)-3-azabicyclo[3.1.1]heptan-3-yl)-2-(1-methyl-1H-1,2,4-triazol-5-yl)ethan-1-one], the EC50 came to 0.1 µM. In the case of `Cn1ncnc1CC(=O)N1C[C@H]2C[C@@H](C1)[C@H]2c1nc(-c2ccc(Cl)c(F)c2)no1` [Compound 222, 1-((1R,5S,6s)-6-(3-(4-chloro-3-fluorophenyl)-1,2,4-oxadiazol-5-yl)-3-azabicyclo[3.1.1]heptan-3-yl)-2-(1-methyl-1H-1,2,4-triazol-5-yl)ethan-1-one] it was above 10 µM; in that of `Cn1ncnc1CC(=O)N1C[C@H]2C[C@@H](C1)[C@@H]2c1nc(-c2ccc(Cl)cc2F)no1` [Compound 223, 1-((1R,5S,6r)-6-(3-(4-chloro-2-fluorophenyl)-1,2,4-oxadiazol-5-yl)-3-azabicyclo[3.1.1]heptan-3-yl)-2-(1-methyl-1H-1,2,4-triazol-5-yl)ethan-1-one], 0.29 µM; in that of `Cn1ncnc1CC(=O)N1C[C@H]2C[C@@H](C1)[C@H]2c1nc(-c2ccc(Cl)cc2F)no1` [Compound 224, 1-((1R,5S,6s)-6-(3-(4-chloro-2-fluorophenyl)-1,2,4-oxadiazol-5-yl)-3-azabicyclo[3.1.1]heptan-3-yl)-2-(1-methyl-1H-1,2,4-triazol-5-yl)ethan-1-one], above 10 µM. In the case of `Cc1noc(CC(=O)N2CCC3(CC2)CC(c2nc(C4CCCCC4)no2)C3)n1` [Compound 225, 1-(2-(3-cyclohexyl-1,2,4-oxadiazol-5-yl)-7-azaspiro[3.5]nonan-7-yl)-2-(3-methyl-1,2,4-oxadiazol-5-yl)ethan-1-one] it was above 10 µM. Under `Cc1noc(CC(=O)N2CCC3(CC2)CC(c2nc(-c4ccc(Cl)c(Cl)c4)no2)C3)n1` [Compound 226, 1-(2-(3-(3,4-dichlorophenyl)-1,2,4-oxadiazol-5-yl)-7-azaspiro[3.5]nonan-7-yl)-2-(3-methyl-1,2,4-oxadiazol-5-yl)ethan-1-one] stands 0.109 µM; under `Cc1noc(CC(=O)N2CCC3(CC2)CC(c2nc(C4CCC(F)(F)CC4)no2)C3)n1` [Compound 227, 1-(2-(3-(4,4-difluorocyclohexyl)-1,2,4-oxadiazol-5-yl)-7-azaspiro[3.5]nonan-7-yl)-2-(3-methyl-1,2,4-oxadiazol-5-yl)ethan-1-one], above 10 µM; under `Cc1noc(CC(=O)N2CCC3(CC2)CC(c2nc(-c4ccc(F)c(F)c4)no2)C3)n1` [Compound 228, 1-(2-(3-(3,4-difluorophenyl)-1,2,4-oxadiazol-5-yl)-7-azaspiro[3.5]nonan-7-yl)-2-(3-methyl-1,2,4-oxadiazol-5-yl)ethan-1-one], 0.294 µM. With `Cc1nonc1CC(=O)N1CCC2(CC1)CC(c1nc(C3CCCCC3)no1)C2` [Compound 229, 1-(2-(3-cyclohexyl-1,2,4-oxadiazol-5-yl)-7-azaspiro[3.5]nonan-7-yl)-2-(4-methyl-1,2,5-oxadiazol-3-yl)ethan-1-one], the EC50 worked out at 3.06 µM. In the case of `Cc1nonc1CC(=O)N1CCC2(CC1)CC(c1nc(-c3ccc(Cl)c(Cl)c3)no1)C2` [Compound 230, 1-(2-(3-(3,4-dichlorophenyl)-1,2,4-oxadiazol-5-yl)-7-azaspiro[3.5]nonan-7-yl)-2-(4-methyl-1,2,5-oxadiazol-3-yl)ethan-1-one] it was 0.176 µM. For the molecule `Cc1nonc1CC(=O)N1CCC2(CC1)CC(c1nc(C3CCC(F)(F)CC3)no1)C2` [Compound 231, 1-(2-(3-(4,4-difluorocyclohexyl)-1,2,4-oxadiazol-5-yl)-7-azaspiro[3.5]nonan-7-yl)-2-(4-methyl-1,2,5-oxadiazol-3-yl)ethan-1-one], the EC50 is above 10 µM. Under `Cc1nonc1CC(=O)N1CCC2(CC1)CC(c1nc(-c3ccc(F)c(F)c3)no1)C2` [Compound 232, 1-(2-(3-(3,4-difluorophenyl)-1,2,4-oxadiazol-5-yl)-7-azaspiro[3.5]nonan-7-yl)-2-(4-methyl-1,2,5-oxadiazol-3-yl)ethan-1-one] stands 0.257 µM; under `Cc1nonc1CC(=O)N1CCC2(CC1)CC(c1nc(-c3ccc(F)cc3)no1)C2` [Compound 233, 1-(2-(3-(4-fluorophenyl)-1,2,4-oxadiazol-5-yl)-7-azaspiro[3.5]nonan-7-yl)-2-(4-methyl-1,2,5-oxadiazol-3-yl)ethan-1-one], 0.45 µM; under `Cc1noc(CC(=O)N2CCN(c3nc(-c4ccc(Cl)c(Cl)c4)no3)CC2)n1` [Compound 234, 1-(4-(3-(3,4-dichlorophenyl)-1,2,4-oxadiazol-5-yl)piperazin-1-yl)-2-(3-methyl-1,2,4-oxadiazol-5-yl)ethan-1-one], above 10 µM. For the molecule `Cc1nonc1CC(=O)N1CCN(c2nc(-c3ccc(Cl)c(Cl)c3)no2)CC1` [Compound 235, 1-(4-(3-(3,4-dichlorophenyl)-1,2,4-oxadiazol-5-yl)piperazin-1-yl)-2-(4-methyl-1,2,5-oxadiazol-3-yl)ethan-1-one], the EC50 stood at 0.27 µM. In the case of `Cc1nonc1CC(=O)N1CCN(c2nc(-c3ccc(F)cc3)no2)CC1` [Compound 236, 1-(4-(3-(4-fluorophenyl)-1,2,4-oxadiazol-5-yl)piperazin-1-yl)-2-(4-methyl-1,2,5-oxadiazol-3-yl)ethan-1-one] it was 0.649 µM; in that of `Cc1nonc1CC(=O)N1CCC2(CC1)CC2c1nc(-c2ccc(F)cc2)no1` (stereo not shown) [Compound 237, 1-(1-(3-(4-fluorophenyl)-1,2,4-oxadiazol-5-yl)-6-azaspiro[2.5]octan-6-yl)-2-(4-methyl-1,2,5-oxadiazol-3-yl)ethan-1-one], above 10 µM; in that of `Cc1noc(CC(=O)N2CCC3(CC2)CC3c2nc(-c3ccc(F)cc3)no2)n1` (stereo not shown) [Compound 238, 1-(1-(3-(4-fluorophenyl)-1,2,4-oxadiazol-5-yl)-6-azaspiro[2.5]octan-6-yl)-2-(3-methyl-1,2,4-oxadiazol-5-yl)ethan-1-one], above 10 µM. Under `Cc1noc(CC(=O)N2CCC3(CCC3c3nc(-c4ccc(Cl)c(Cl)c4)no3)CC2)n1` (stereo not shown) [Compound 239, 1-(1-(3-(3,4-dichlorophenyl)-1,2,4-oxadiazol-5-yl)-7-azaspiro[3.5]nonan-7-yl)-2-(3-methyl-1,2,4-oxadiazol-5-yl)ethan-1-one] stands above 25 µM; under `Cc1noc(CC(=O)N2CCC3(CCC3c3nc(-c4ccc(F)cc4)no3)CC2)n1` (stereo not shown) [Compound 240, 1-(1-(3-(4-fluorophenyl)-1,2,4-oxadiazol-5-yl)-7-azaspiro[3.5]nonan-7-yl)-2-(3-methyl-1,2,4-oxadiazol-5-yl)ethan-1-one], above 10 µM; under `Cc1nonc1CC(=O)N1CCC2(CCC2c2nc(-c3ccc(F)cc3)no2)CC1` (stereo not shown) [Compound 241, 1-(1-(3-(4-fluorophenyl)-1,2,4-oxadiazol-5-yl)-7-azaspiro[3.5]nonan-7-yl)-2-(4-methyl-1,2,5-oxadiazol-3-yl)ethan-1-one], above 10 µM. In the case of `Cc1noc(CC(=O)N2CC3CC(C2)C3n2nnc(-c3ccc(F)cc3)n2)n1` (stereo not shown) [Compound 242, 1-(6-(5-(4-fluorophenyl)-2H-tetrazol-2-yl)-3-azabicyclo[3.1.1]heptan-3-yl)-2-(3-methyl-1,2,4-oxadiazol-5-yl)ethan-1-one] it was above 25 µM; in that of `Cc1nonc1CC(=O)N1CC2CC(C1)C2n1nnc(-c2ccc(F)cc2)n1` (stereo not shown) [Compound 243, 1-(6-(5-(4-fluorophenyl)-2H-tetrazol-2-yl)-3-azabicyclo[3.1.1]heptan-3-yl)-2-(4-methyl-1,2,5-oxadiazol-3-yl)ethan-1-one], above 10 µM. In the case of `Cc1nonc1CC(=O)N1CCCC(n2cc(C(=O)N3CCOCC3)nn2)C1` (stereo not shown) [Compound 244, 2-(4-methyl-1,2,5-oxadiazol-3-yl)-1-(3-(4-(morpholine-4-carbonyl)-1H-1,2,3-triazol-1-yl)piperidin-1-yl)ethan-1-one], the concentration giving a half-maximal response (EC50) was above 10 µM. As to `CCN(CC)C(=O)c1cn(C2CCCN(C(=O)Cc3nonc3C)C2)nn1` (stereo not shown) [Compound 245, N,N-diethyl-1-(1-(2-(4-methyl-1,2,5-oxadiazol-3-yl)acetyl)piperidin-3-yl)-1H-1,2,3-triazole-4-carboxamide], the EC50 is above 10 µM. Consider `Cc1nonc1CC(=O)N1CCCC(n2cc(C(=O)NCCO)nn2)C1` (stereo not shown) [Compound 246, N-(2-hydroxyethyl)-1-(1-(2-(4-methyl-1,2,5-oxadiazol-3-yl)acetyl)piperidin-3-yl)-1H-1,2,3-triazole-4-carboxamide], for which the EC50 is above 10 µM.

For the molecule `Cc1nonc1CC(=O)N1CCC2(CC1)CC(n1nnc(-c3ccc(F)cc3)n1)C2` [Compound 247, 1-(2-(5-(4-fluorophenyl)-2H-tetrazol-2-yl)-7-azaspiro[3.5]nonan-7-yl)-2-(4-methyl-1,2,5-oxadiazol-3-yl)ethan-1-one], the concentration for a half-maximal effect (EC50) turned out to be 1.25 µM. In the case of `Cc1nonc1CC(=O)N1CCCC(n2nnc(-c3ccc(F)cc3)n2)C1` (stereo not shown) [Compound 248, 1-(3-(5-(4-fluorophenyl)-2H-tetrazol-2-yl)piperidin-1-yl)-2-(4-methyl-1,2,5-oxadiazol-3-yl)ethan-1-one] it was above 10 µM; in that of `Cc1nonc1CC(=O)N1CC2CCC(C1)C2c1nc(-c2ccc(F)cc2)no1` (stereo not shown) [Compound 249, 1-(8-(3-(4-fluorophenyl)-1,2,4-oxadiazol-5-yl)-3-azabicyclo[3.2.1]octan-3-yl)-2-(4-methyl-1,2,5-oxadiazol-3-yl)ethan-1-one], 1.29 µM.
